The text below walks through data of patent US20110152252A1 (priority 2007, published 2011).

Like-named read-outs stand apart in the source and are kept apart here.

For assay [1], the target named is mitochondrial peripheral benzodiazepine receptor, mPBR (Homo sapiens, UniProt P30536). The note with it: cited from earlier work.
Assay [2] deals with periampular tumors in APC^1638N mice. The note with it: mouse, in vivo.
Assay [3] has as its system Gb3-expressing HT-29 cells. Briefly: cells. Type of assay: cell-based.

As a reminder, the Ki is the equilibrium dissociation constant of an inhibitor or competing ligand from its target. As usually defined, the IC50 is the point on the concentration scale where inhibition reaches its midpoint.

mitochondrial peripheral benzodiazepine receptor, mPBR, sequence (P30536 whole entry): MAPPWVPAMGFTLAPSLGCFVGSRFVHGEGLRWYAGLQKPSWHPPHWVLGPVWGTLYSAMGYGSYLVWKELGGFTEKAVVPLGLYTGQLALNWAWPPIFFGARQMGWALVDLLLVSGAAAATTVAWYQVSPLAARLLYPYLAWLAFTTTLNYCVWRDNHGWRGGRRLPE

Regarding RO5-4864, the inhibitory constant (Ki) in assay [1] was 23 nM.
Regarding `CCc1c2c(nc3ccc(OC(=O)N4CCC(N5CCCCC5)CC4)cc13)-c1cc3c(c(=O)n1C2)COC(=O)[C@]3(O)CC` [CPT11], in assay [2], the “inflammatory reaction in the periampular region (pathology)” value was “weak and very moderate inflammatory reaction”; the “tumor growth / development of periampular tumors” value is given as “periampular tumors developed”; the “tumor lesions detected (pathology)” value was “high-grade adenomas and carcinomas could be detected”. Further, the half-maximal inhibitory concentration (IC50) in assay [3] (Homo sapiens, HT-29) amounted to 70000 nM.
Regarding SN-38, the IC50 in assay [3] (read-out: IC50) came out at 30 nM.
